Among the data in ChEMBL document CHEMBL5096167, “Recent advances in development of hetero-bivalent kinase inhibitors” (Eur J Med Chem, 2021) are IC50, Ki and Kd values, retold here.

In assay [1] the target is Mitogen-activated protein kinase 7 (Mus musculus, UniProt Q9WVS8). The assay can be described thus: Activation of ERK5 in MEF cells. It counts as cell-based.
In assay [2] the target is Proto-oncogene tyrosine-protein kinase Src (Homo sapiens, UniProt P12931). The assay can be described thus: Irreversible inhibition of wild type c-Src (unknown origin) assessed as inhibition constant by fluorimetric assay.
Assay [3] addresses Mitogen-activated protein kinase 1 (Homo sapiens, UniProt P28482).
Assay [4] deals with Proto-oncogene tyrosine-protein kinase Src (Gallus gallus, UniProt P00523). The assay can be described thus: Binding affinity to chicken 6-His tagged c-Src expressed in Escherichia coli Bl21 (DE3) assessed as dissociation constant.
Assay [5] concerns the target Casein kinase II subunit alpha (Homo sapiens, UniProt P68400). The assay can be described thus: Inhibition of CK2alpha in human MIA PaCa-2 cells incubated for 5 hrs by western blot analysis. It counts as cell-based.

Sequence of Proto-oncogene tyrosine-protein kinase Src (Homo sapiens, UniProt P12931) (P12931 2-536 limits assumed): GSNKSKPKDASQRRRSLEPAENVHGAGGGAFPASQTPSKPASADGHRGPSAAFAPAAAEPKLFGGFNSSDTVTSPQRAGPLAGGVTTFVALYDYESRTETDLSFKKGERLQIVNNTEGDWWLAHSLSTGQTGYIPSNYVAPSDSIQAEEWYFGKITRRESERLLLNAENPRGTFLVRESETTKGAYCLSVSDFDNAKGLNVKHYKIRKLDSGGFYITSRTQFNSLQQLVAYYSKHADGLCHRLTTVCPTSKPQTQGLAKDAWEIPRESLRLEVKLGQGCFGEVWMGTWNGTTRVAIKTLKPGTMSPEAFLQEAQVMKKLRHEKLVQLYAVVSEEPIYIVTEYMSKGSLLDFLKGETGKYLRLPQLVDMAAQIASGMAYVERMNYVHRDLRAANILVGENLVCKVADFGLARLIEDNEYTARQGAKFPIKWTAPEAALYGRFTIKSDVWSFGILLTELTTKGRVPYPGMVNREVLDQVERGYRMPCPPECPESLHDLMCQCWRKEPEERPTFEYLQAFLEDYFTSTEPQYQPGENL
Sequence of Mitogen-activated protein kinase 1 (P28482 whole entry): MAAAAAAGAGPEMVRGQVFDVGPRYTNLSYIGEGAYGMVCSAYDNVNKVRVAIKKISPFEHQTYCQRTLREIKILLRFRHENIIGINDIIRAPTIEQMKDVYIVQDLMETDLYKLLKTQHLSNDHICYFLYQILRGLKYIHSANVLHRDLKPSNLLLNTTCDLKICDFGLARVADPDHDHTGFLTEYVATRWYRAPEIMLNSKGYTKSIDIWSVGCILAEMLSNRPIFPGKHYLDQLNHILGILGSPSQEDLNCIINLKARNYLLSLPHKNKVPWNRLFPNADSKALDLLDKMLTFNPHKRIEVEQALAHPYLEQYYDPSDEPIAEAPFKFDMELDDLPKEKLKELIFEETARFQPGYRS
Sequence of Casein kinase II subunit alpha (P68400 whole entry): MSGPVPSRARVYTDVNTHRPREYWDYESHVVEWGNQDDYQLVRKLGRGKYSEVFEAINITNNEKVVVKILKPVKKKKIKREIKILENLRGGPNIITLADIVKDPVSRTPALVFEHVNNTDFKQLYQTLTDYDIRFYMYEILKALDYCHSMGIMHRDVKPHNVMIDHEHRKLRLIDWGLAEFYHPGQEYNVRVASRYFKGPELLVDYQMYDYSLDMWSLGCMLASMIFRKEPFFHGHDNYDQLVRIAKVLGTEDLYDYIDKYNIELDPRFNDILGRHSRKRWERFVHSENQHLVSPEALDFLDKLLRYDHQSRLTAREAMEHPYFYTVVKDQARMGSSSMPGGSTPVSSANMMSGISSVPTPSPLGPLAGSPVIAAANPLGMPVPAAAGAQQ
Sequence of Mitogen-activated protein kinase 7 (Q9WVS8 whole entry): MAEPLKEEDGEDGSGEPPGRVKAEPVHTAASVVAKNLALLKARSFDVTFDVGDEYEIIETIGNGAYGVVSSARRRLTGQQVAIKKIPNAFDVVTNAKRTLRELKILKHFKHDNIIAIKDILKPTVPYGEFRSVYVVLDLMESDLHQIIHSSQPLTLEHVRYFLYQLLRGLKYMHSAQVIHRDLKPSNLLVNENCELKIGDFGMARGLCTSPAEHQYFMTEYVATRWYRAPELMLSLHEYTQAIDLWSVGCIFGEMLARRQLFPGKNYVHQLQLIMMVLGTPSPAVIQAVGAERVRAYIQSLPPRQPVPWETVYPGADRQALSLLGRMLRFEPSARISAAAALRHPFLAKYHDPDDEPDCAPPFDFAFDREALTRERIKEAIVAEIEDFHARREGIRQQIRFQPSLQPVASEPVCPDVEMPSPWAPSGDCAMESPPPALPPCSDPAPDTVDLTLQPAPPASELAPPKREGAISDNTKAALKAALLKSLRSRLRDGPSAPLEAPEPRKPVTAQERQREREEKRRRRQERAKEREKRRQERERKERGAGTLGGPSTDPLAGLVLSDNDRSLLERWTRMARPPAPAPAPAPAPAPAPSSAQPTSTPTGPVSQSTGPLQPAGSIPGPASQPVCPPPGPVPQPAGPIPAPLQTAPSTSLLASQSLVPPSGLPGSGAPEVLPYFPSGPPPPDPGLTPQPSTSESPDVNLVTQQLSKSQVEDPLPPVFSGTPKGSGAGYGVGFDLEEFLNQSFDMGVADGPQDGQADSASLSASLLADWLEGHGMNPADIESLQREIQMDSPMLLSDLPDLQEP

Take `CN1CCN(c2cnc3c(C4CCN(C(=O)c5ccc(OC(F)(F)F)cc5N)CC4)ncnc3c2)CC1` [BAY-885]: the IC50 in assay [1] came out at 120 nM. Regarding `O=C(CCS)Nc1cccc(Nc2nccc(Nc3cc(C4CC4)[nH]n3)n2)c1`, the Ki in assay [2] was determined as 20 nM. `C#CCCCCNC(=O)CCCCCn1nc(N)c2cc(-c3c(-c4ccccc4)nn4ccccc34)nnc21` yielded a half-maximal inhibitory concentration (IC50) in assay [3] of 1200 nM. This counts as single-digit micromolar. Take `CCC(C)[C@@H](NC(=O)[C@@H](CCC(=O)O)NC(=O)[C@@H](CCC(=O)O)NC(=O)[C@@H](CCC(=O)O)NC(C)=O)C(=O)N[C@H](Cc1ccc(NC(=O)CCCCCn2cc(-c3ccc(-n4nc(-c5ccc(Cl)cc5)c5c(N)ncnc54)cc3)nn2)cc1)C(=O)NCC(=O)N[C@H](CCC(=O)O)C(=O)N[C@H](Cc1ccccc1)C(=O)N[C@H](CCC(=O)O)C(=O)N[C@H](C)C(N)=O` (stereo not given in full): the Kd in assay [4] came to 0.28 nM.

With `CC(=O)OCOC(=O)CN(CC(=O)OCOC(C)=O)C(=O)CN(CC(=O)OCOC(C)=O)C(=O)CN(CC(=O)OCOC(C)=O)C(=O)CCCCCCCn1cnc2c(Br)c(Br)c(Br)c(Br)c21`, inhibition in assay [5] was half-maximal at 47 nM (IC50).

The IC50 is the concentration that gives 50% inhibition. One may read the Kd as the constant that tells how readily two partners part at equilibrium.
